Experimental data from patent publication US11590075B2, “Methods and products for reducing adhesions” (priority 2017, dated 2023).

Tests used:
[1] = test system: primary human nasal fibroblasts; test: Wound healing (migration) scratch assay, fibroblasts; type: cell-based; settings: for wound healing of primary fibroblasts: after 44 hours
Procedure: In the fibroblast wound closure assay, fibroblasts were seeded in 24 well plates, stained with CellTrace™ Violet (Invitrogen/Life Technologies, USA) and allowed to get 80% confluent in 24 hours. A straight vertical scratch was made down through the fibroblast and HNEC-ALI cell monolayers by using a 200 μl pipette tip. The media and cell debris was aspirated carefully and culture media with different concentrations of deferiprone (1 mM, 5 mM, 10 mM, 20 mM) or media only (negative control) added to each well for 72 hours. At time zero, cells were treated with 1 μg/ml mitomycin (Accord Healthcare Inc, NDC 16729-108-11, USA) to inhibit cell proliferation. The wound closure (cell migration) was recorded using time-lapse LSM700 confocal scanning laser microscopy (Zeiss Microscopy, Germany), with an image recorded every 4 hours in a temperature and CO2 controlled chamber. Data was analysed using Image.

[2] = test system: primary human nasal epithelial cells (HNECs); test: Cytotoxicity, LDH assay, HNECs; type: cell-based; settings: exposure 1 h, 2 h, 3 h, 4 h, 5 h and 6 h; deferiprone 1, 5, 10, 20 mM (p>0.05); Triton X-100 0.5%
Description: Primary human nasal epithelial […] harvested from nasal polyps by gentle brushing in a method described by Ramezanpour et al. (2016) “Th17 cytokines disrupt the airway mucosal barrier in chronic rhinosinusitis” Mediators of inflammation; 2016: 9798206. doi: 10.1155/2016/9798206. Extracted cells were suspended in Bronchial Epithelial Growth Media (BEGM, CC-3170, Lonza, Walkersville, Md., USA), supplemented with 2% Ultroser G (Pall Corporation, Port Washington, N.Y., USA). The cell suspension was depleted of macrophages using anti-CD68 (Dako, Glostrup, Denmark) coated culture dishes, and HNECs were maintained with B-ALITM growth medium (Lonza, Walkersville, USA) in collagen coated flasks (Thermo Scientific, Walthman, Mass., USA) in a cell incubator at 37° C. with 5% CO2. Primary human fibroblasts or epithelial cells were grown in DMEM and BEGEM (Lonza, Walkersville, USA) medium respectively. Cells were maintained in a fully humidified incubator with 5% CO2 at 37° C. prior to cytotoxicity studies. […] The optical density (OD) was measured at 490 Mil on a FLUOstar OPTIMA plate reader (BMG Labtech, Ortenberg, Germany), Cell culture studies were performed as three independent experiments.

[3] = test system: primary human nasal fibroblasts; test: Cytotoxicity, LDH assay, nasal fibroblasts; type: cell-based; settings: exposure 1 h, 2 h, 3 h, 4 h, 5 h and 6 h; deferiprone 1, 5, 10, 20 mM (p>0.05); Triton X-100 0.5%
Procedure: Sinonasal tissue was biopsied from paranasal sinus mucosa and transferred to a 6-well culture plate with 2 ml Dulbecco's Modified Eagle's medium (DMEM, Invitrogen, UK) supplemented with 1:100 L-glutamine, 10% Fetal bovine serum (FBS, Sigma-Aldrich), 1:100 ascorbic acid 2-phosphate, and 1:100 penicillin streptomycin (Gibco, Life Technologies) and incubated. Every 2-3 days, the tissue was washed gently with 1 ml phosphate-buffered saline (PBS) and medium was replaced with 1.5 ml fresh medium until fibroblasts became confluent after approximately 2 weeks. Once confluent, fibroblasts were washed with 2 ml PBS, trypsinized and collected followed by centrifugation at 400×g for 8 minutes. The supernatant was removed and pellet resuspended in 1 ml PBS along with 50 μl Dynabeads Epithelial Enrich (Invitrogen, USA). The tube was wrapped in parafilm and placed on a rotor mixer for 20 minutes at room temperature (RT). Supernatant containing fibroblasts were transferred to a T25 tissue culture flask and the tube containing the remaining beads discarded Primary human fibroblasts or epithelial cells were grown in DMEM and BEGEM (Lonza, Walkersville, USA) medium respectively. […] The optical density (OD) was measured at 490 Mil on a FLUOstar OPTIMA plate reader (BMG Labtech, Ortenberg, Germany), Cell culture studies were performed as three independent experiments.

[4] = test system: IL-6 production in human nasal epithelial cells; test: IL-6 ELISA, HNECs with Poly (I:C); type: cell-based; settings: 24 hours, in the presence of Poly (I:C) LMW
Procedure: (§1) Supernatants were collected from HNECs and fibroblasts after 24 hours of exposure with different concentrations of deferiprone in the presence/absence of the pro-inflammatory agent Poly (I:C) (10 μg/ml) or IL-1β (10 ng/ml Sigma, Saint Louis, USA) respectively. Interleukin-6 (IL-6) protein levels were estimated with an ELISA kit using rat anti-human IL-6 antibodies (BD Biosciences, New Jersey, USA), according to the manufacturer's instructions. All measurements were performed in duplicate using a FLUOstar OPTIMA plate reader (BMG Labtech, Ortenberg, Germany). The tissue sample concentration was calculated from a standard curve and corrected for protein concentration.

[5] = test system: primary fibroblasts; test: Fibroblast wound healing protocol (gap closure, migration); type: cell-based
Procedure: 1. Fibroblast Wound Healing Protocol Fibroblasts were stained with CellTrace Proliferation Kit (Thermo-Fisher Scientific, Life Technologies, CA) and prepared in a suspension of 3×10^5 cells/mL of DMEM (Invitrogen, Sydney Australia) containing Penicillin at 500 U/mL, Streptomycin and Amphotericin B (Sigma-Aldrich, MO) at 0.5 mg/mL, 10% Fetal Bovine Serum. 70 uL of this suspension were seeded into each chamber inserts of the Ibidi culture-insert 24 (Ibidi GmbH, Munich, Germany) and cultured for 12 hours at 37° C., 5% CO2. The inserts were then removed with sterile forceps and cells washed twice in phosphate buffered saline. The following treatments were used: • (i) No treatment control (NTC) DMEM (Invitrogen, Sydney Australia) containing Penicillin at 500 U/mL, Streptomycin and Amphotericin B (Sigma-Aldrich, MO) at 0.5 mg/mL 10% Fetal Bovine Serum. • (ii) 5 mM of Deferiprone dissolved in control media. • (iii) 10 mM Deferiprone dissolved in control media. • (iv) 20 mM Deferiprone dissolved in control media. The effects on cells were recorded in real time at 37° C., 5% CO2 and imaged at intervals of 0, 8, 24 and 48 hours using Zeiss LSM700 Confocal (Carl Zeiss, Oberkochen, Germany) until gap closure. Image properties: DAPI blue signal; 405 nm laser; line step 2; line average 4; bit 12; zoom 0.5; 512×512 pixels; time series.

[6] = test system: HNEC-ALI cultures; test: Wound healing (migration) scratch assay, HNEC-ALI; type: cell-based, human; settings: 1, 5, 10, 20 mM for up to 68 hours; untreated healed by 68 hours
Procedure: HNECs were grown until 80% confluent then harvested for seeding onto collagen coated 6.5 mm permeable Transwell plates (BD Biosciences, San Jose, Calif., USA) at a density of 5×10^4 cells per well. Cells were maintained with B-ALI™ growth medium for 2-3 days in a cell incubator at 37° C. with 5% CO2. On day 3 after seeding, the apical media was removed and the basal media replaced with B-ALI™ differentiation media, exposing the apical cell surface to the atmosphere. Human nasal epithelial cultures at air liquid interface (HNEC-ALI) were maintained for a minimum of 14 days for development of tight junctions and 28 days for cilia generation. In the fibroblast wound closure assay, fibroblasts were seeded in 24 well plates, stained with CellTrace™ Violet (Invitrogen/Life Technologies, USA) and allowed to get 80% confluent in 24 hours. A straight vertical scratch was made down through the fibroblast and HNEC-ALI cell monolayers by using a 200 μl pipette tip. […] The wound closure (cell migration) was recorded using time-lapse LSM700 confocal scanning laser microscopy (Zeiss Microscopy, Germany), with an image recorded every 4 hours in a temperature and CO2 controlled chamber. Data was analysed using Image.

[7] = test system: type I collagen release in primary human nasal fibroblasts; test: Collagen assay (procollagen type I C-peptide ELISA); type: cell-based; settings: different concentrations (1, 5, 10, 20 mM)
Procedure: Primary human nasal fibroblasts were seeded in 24-well tissue-culture plates at a density of 5×10^5 grown in DMEM until confluent. […] Following treatment, the supernatant was collected and the protein level of type I collagen was measured with a procollagen type I C-peptide ELISA kit (Takara Bio Inc, Otsu, Japan). Experimental procedures followed the manufacturer's instruction. Briefly, 20 μl of culture medium and 100 μl of the antibody-POD conjugate solution were sequentially added into microtiter plates and reacted for 3 hours at 37° C. After 4× washing with washing buffer solution (1×PBST), 100 μl of the substrate solution was added and incubated for 15 minutes at RT. Finally, the stop solution (100 μl) was added and corresponding absorbance was recorded at 450 nm using a FLUOstar OPTIMA plate reader (BMG Labtech, Ortenberg, Germany).

[8] = test system: primary fibroblasts; test: Alamar Blue proliferation assay; type: cell-based
Procedure: Alamar Blue Proliferation Assay Fibroblasts were seeded at a density of 2×10^4 cells/well in 96 well plates (Nuns, Sydney Australia) and cultured at 37° C., 5% CO2 for 24 hours Media was aspirated and cells were washed twice in phosphate buffered saline. The following treatments were used: • (i) No treatment control (NTC)—DMEM (Invitrogen, Sydney Australia) containing Penicillin at 500 U/mL, Streptomycin and Amphotericin B (Sigma-Aldrich, MO) at 0.5 mg/mL, 10% Fetal Bovine Serum. • (ii) 5 mM of Deferiprone dissolved in control media. • (iii) 10 mM Deferiprone dissolved in control media. • (iv) 20 mM Deferiprone dissolved in control media. Readings were taken at 4, 24, 48 and 72 hours. At each time point media was aspirated and fresh control media with 10% Alamar Blue was added and incubated in the dark for 6 hours at 37° C. 5% CO2. The plate was then read at 570 and 595 nm according to manufacturer's instructions. Fibroblasts proliferation was measured using the Alamar Blue reduction assay. The assay is based on use of resazurin, a non-toxic, cell permeable compound which is blue in colour and non-fluorescent. Resazurin is reduced to resorufin a compound that is red in colour and highly fluorescent. Viable cells continuously convert resazurin to resorufin, increasing the overall fluorescence and colour of the media surrounding cells.

[9] = test system: IL-6 production in nasal fibroblast cells; test: IL-6 ELISA, nasal fibroblasts with IL-1β; type: cell-based, human; settings: in the presence or absence of IL-13 (so in the source), after 24 hours
Procedure: as §1

## Cc1c(O)c(=O)ccn1C [deferiprone, 3-hydroxy-1,2-dimethylpyridin-4(1H)-one]
[1]; 5 mM
  wound healing of primary fibroblasts: significantly delayed healing
[1]; 10 mM
  wound healing of primary fibroblasts: significantly delayed healing
[1]; 20 mM, at 28 h and all time points thereafter, untreated closed after 44 hours
  wound closure of primary fibroblasts: significant delay in wound closure
[2]
  LDH release (cytotoxicity) in HNECs: no significant increase in LDH release
[3]
  LDH release (cytotoxicity) in fibroblasts: no significant increase in LDH release
[4]; 10 mM, p=0.001
  reduction of IL-6 protein concentrations in HNECs: 80%
[4]; 20 mM, p=0.0001
  reduction of IL-6 protein concentrations in HNECs: 96%
[5]; 20 mM deferiprone, up to 48 hours, control cells close the void after 48 hours
  closure of void in fibroblasts: minimal closure
[5]; within 48 hours, 5, 10, 20 mM
  fibroblast migration: inhibited fibroblast migration
[6]
  wound healing in HNEC-ALI cultures: did not show any significant delay in wound healing
[7]; 24 hours as printed, absence of ASC, p<0.0001
  collagen protein concentrations in supernatants of fibroblast monolayers: significantly reduced collagen protein concentrations
[7]; with ASC
  collagen secretion in the presence of L-Ascorbic acid-2 phosphate (ASC): significantly inhibited collagen secretion in a dose dependent manner
[8]; 5, 10, 20 mM deferiprone, readings at 4, 24, 48, 72 hours, 2-way ANOVA
  inhibition of fibroblast proliferation (Alamar Blue): significant dose dependent effect
[8]; occurred over a period of at least 24 to 72 hours
  time course of inhibition of proliferation: time dependent
[9]
  secretion of IL-6 in nasal fibroblasts: did not alter the secretion of IL-6
